Data reported in a melting point compilation (Tetko et al.; mined from patent text by program, amines drawn as free bases though some values may be those of a salt).

Row | Compound | melting point [°C]
1 | CS(=O)(=O)N1CCC(NC(=O)Nc2ccc(F)cc2)CC1 | 186 to 188
2 | O=[N+]([O-])C1(Cc2ccccc2)CN(Cc2ccccc2)CCN(Cc2ccccc2)C1 | 66 to 69
3 | CN(C)C(=O)Oc1ccc(C[C@H](NC(=O)Nc2ccccc2S(=O)(=O)c2ccccc2)C(=O)O)cc1 | 115
4 | ClCc1cccc2cc(Br)ccc12 | 73 to 76
5 | Cn1ncnc1COc1nn2c(-c3ccccc3F)nncc2c1-c1cccs1 | 196 to 197
6 | CCCCCCC/C=C/C(=O)NCCC(C)C | 28 to 31
7 | N#Cc1cccc(C2=Nc3cc(N4CCC5(CC4)OCCO5)c(-c4ccccc4F)cc3NC(=O)C2)c1 | 253
8 | CCN1CCC2(CC1)OC(c1ccccc1)c1ccccc12 (stereo not given) | 113 to 115
9 | OCc1cn(-c2cc(F)cc(Br)c2)cn1 | 134 to 138
10 | Nc1ccsc1[N+](=O)[O-] | 159
11 | CCn1c(=O)[nH]c2ncn(CC)c2c1=O | 204 to 205
12 | OC(Cn1cncn1)(Cn1cnc(C=Cc2ccc(OC(F)(F)F)cc2)n1)c1ccc(F)cc1F (stereo not given) | 149 to 151
13 | [N-]=[N+]=NC1CC(n2cc(C=CBr)c(=O)[nH]c2=O)OC1CCl (stereo not given) | 124 to 125
14 | O=C1C=Cc2ccccc2C1(Cc1ccncc1)Cc1ccncc1 | 111 to 112
15 | CCCN(CCC)c1nc(C#N)c(C#N)nc1CC | 58 to 60
16 | CC1CC2C3CCC4=CC(=O)C=CC4(C)C3(F)C(O)CC2(C)C1(O)C(=O)COC(=O)c1cccnc1 (stereo not given) | 262 to 265
17 | Cc1ccc2c(c1)oc1c(C(=O)NC3C4CC5CC(C4)CC3C5)nn(-c3ccc(Cl)cc3Cl)c12 (stereo not given) | 209 to 211
18 | O=C1C(Br)CCN1c1cccc(C(F)(F)F)c1 (stereo not given) | 79 to 83
19 | CC1(C)CC(=O)c2c(C3CCCCC3)sc(C#N)c2C1 | 129 to 132
20 | CC(C)(Oc1ccc(Cl)cc1)c1ccnc2ncnn12 | 132 to 135

Row | Compound | melting point [°C]
21 | OCC1CCCc2scnc21 (stereo not given) | 74 to 75
22 | COc1c(N2CCNC(CF)C2)c(F)cc2c(=O)c(C(=O)O)cn([C@@H]3C[C@@H]3F)c12 (stereo not given in full) | 153 to 156
23 | COc1ccc(CSc2nnc(-c3ccc4occ(-c5ccc(OC)cc5)c4c3)o2)cc1 | 162 to 163
24 | CCCCCCCCCCCCCCCC(=O)Nc1nc(=O)n(C2OC(C)C(O)C2O)cc1F (stereo not given) | 93 to 95
25 | CC(=O)Nc1n[nH]c2cc(Cl)ccc12 | 240
26 | O=C1N(Cc2ccccn2)c2ccccc2C12COc1cc3c(cc12)OCCCO3 (stereo not given) | 122 to 123
27 | CSc1cccc(-c2ccccc2N)c1 | 114 to 115
28 | CC(C)(C)OC(=O)Nc1cc(N2CCOCC2)c(I)cc1[N+](=O)[O-] | 43 to 44
29 | Oc1ccc(-c2nn(-c3ccccc3F)c3cc(O)ccc23)c(O)c1 | > 205
30 | Cc1nc(-c2ccc(CCN3CCN(c4nsc5ccccc45)CC3)cc2)cs1 | 135 to 140
31 | C[C@]12Cc3ccccc3[C@H]1Nc1ccccc12 (relative stereo) | 72
32 | Cc1cc2c(c(Cc3c[nH]cn3)c1)OC(C)(C)OC2 | 152 to 155
33 | Cc1ccc(S(N)(=O)=O)cc1Br | 156
34 | C=C(C)n1cc(C(=O)O)c(=O)c2cc(F)c(Cl)cc21 | 229
35 | CC1(C)CCCC(C)(C)N1c1nc(NCCO)nc(NCCO)n1 | 147 to 148
36 | COCOC(c1cc(CBr)ccc1I)(C(F)(F)F)C(F)(F)F | 93
37 | CCOC(=O)c1cn(-c2nccnn2)cn1 | 193 to 194
38 | CC(=O)Nc1ccc(Sc2cccnc2)cc1 | 138 to 140
39 | CCOC(=O)C(C#N)=CNc1ccc(C=C(C#N)C(=O)OCC)o1 | 206 to 208
40 | CCOC(=O)c1cc(=O)c2[nH]ncc2[nH]1 | 287 to 292

The remaining lines, values ahead:

Row | melting point [°C] | Compound
41 | 185 to 186 | O=C1NC(=O)c2ccccc2/C1=C/Nc1ccc(CN2CCCCC2)cc1
42 | 150 to 151 | CCOC(=O)Nc1c(OC)cc(CC(C#N)=CNc2ccccc2)cc1OC
43 | 148 to 150 | CC(C)(C)OC(=O)NC(C)(C(=O)O)c1nc2ccccc2s1 (stereo not given)
44 | 122 to 124 | COC(=O)CCCOc1cc(C(C)C)c2c(c1)S(=O)(=O)N(COC(=O)c1ccccc1)C2=O
45 | 126 to 129 | CCOC(=O)C=C(c1ccccc1)c1cc([N+](=O)[O-])ccc1NS(=O)(=O)c1ccc(OC)cc1
46 | 201 to 203 | Fc1ccc(-n2c3c(c4cc(F)ccc42)CN(CCc2ccc4ccccc4n2)CC3)cc1
47 | 234 to 237 | O=C(NCc1ccn(-c2cc3[nH]c(=O)c(=O)[nH]c3cc2[N+](=O)[O-])c1)NC1CCN(Cc2ccccc2)CC1
48 | 193 to 195 | Cc1ccc(-c2nc3ccc(C(C)(C)CNC=O)cc3[nH]2)cc1
49 | 112 | CC(C)(C)OC(=O)N1CCC(=O)N1c1ccc2ccccc2n1
50 | 198 to 203 | COc1ccccc1NC(=O)Nc1nc(N2CCOCC2)nc(N(CCC(=O)O)Cc2ccc(Cl)c(Cl)c2)n1
51 | 190 to 191 | Cc1ccc(C2c3c(C)c(N4CCN(c5ccccn5)CC4)c(C)c(C)c3OC2(C)C)cc1 (stereo not given)
52 | 182 to 183 | O=C(O)c1ccc(OCCCO/N=C/c2cn(Cc3ccccc3)c3ccccc23)cc1O
53 | 152 to 154 | Cc1cn(C(C)(C)C(=O)N(C)c2ccccc2)nc1-c1ccccc1
54 | 104 to 106 | C=CCN1CCc2nc(NCC)nc(-c3ccc(Cl)cc3)c2C1
55 | 140 to 142 | O=C(N[C@H](Cc1cccc(OC(F)(F)C(F)F)c1)[C@@H](O)c1ccc(F)nc1)c1cccc2c1C=CCCC2 (racemic)
56 | 141 to 143 | NC=C1C(=O)N(c2cccc(Cl)c2)c2ccccc21
57 | 151 to 156 | CCc1cn(C2OC(CNC(=O)C(C)Oc3cc(OC)c(Cl)cc3Cl)C(O)C2F)c(=O)[nH]c1=O (stereo not given)
58 | 212 | CC(c1ccc(C(=O)O)cc1)c1cc2cc(C(F)(F)F)ccc2n1S(=O)(=O)c1cccc(C(C)(C)C)c1 (racemic)
59 | 107 to 111 | O=C(O)CN1C(=O)C(NC(=O)[C@@H](S)Cc2ccccc2)CCC2CC=CC=C21 (stereo not given in full)
60 | 72 to 74 | CCOc1cc([C@@H](CCN(C=O)OC(C)=O)N2Cc3cccc(NC(=O)C(C)C)c3C2=O)ccc1OC
61 | 152 to 153 | CCOc1nn(Cc2ccc(OCCn3ncc4ccccc4c3=O)cc2)cc1CCC(=O)O
62 | 106 | CC1=C(C)N(C(=O)Oc2ccccc2)C(c2ccc(C)cc2)C=C1 (stereo not given)
63 | 195 to 197 | COc1ccc(S(=O)(=O)N2CCc3cccc(-c4ccccn4)c32)cc1
64 | 222 to 224 | NC1=NS(=O)N=C1NCCCOc1cccc2c(N3CCOCC3)nccc12 (stereo not given)
65 | 207 to 208 | COc1cc2c3c(cccc3c1)C(=O)c1c(O)cccc1-2
66 | 160 to 161 | CCOC(=O)NN(C)c1ccc(-c2ccc(F)cc2)nn1
67 | 173 to 175 | CC(C)=NOCc1nc2c(N)nc3cccnc3c2n1CC(C)C
68 | 172 to 175 | C[C@H](NS(=O)(=O)c1ccc(-c2c(C#N)c3cc(F)c(OC(F)F)cc3n2C2CCC2)nc1)C(F)(F)F

Row | melting point [°C] | Compound
69 | 287 to 288 | CC(=O)Nc1nc2c(s1)-c1c(c(-c3c[nH]cn3)nn1-c1ccccc1Cl)CC2
70 | 144 to 147 | CCC(=O)NC[C@H]1CN(c2ccc(C3C=CS(=O)(=O)CC3)cc2)C(=O)O1 (stereo not given in full)
71 | 270 to 271 | CC(C)CCCC(C)C1CCC2(C#N)C3C(O)CC4C(C)(C)C(OC(=O)c5ccccc5)CCC4(C)C3CCC12C (stereo not given)
72 | 267 to 268 | O=c1c2c(c3cccnc3n1-c1ccccc1)OC(CO)C2 (stereo not given)
73 | 192 to 193 | COC(=O)c1cc(=O)c2cc(OC)cc([N+](=O)[O-])c2o1
74 | 51 to 54 | NC(=O)CCCC1(c2ccccc2)CC(O)=CC(=O)O1 (stereo not given)
75 | 128 to 129 | COc1ccc(C(=O)N2c3ccccc3C(N3CCc4ccccc4C3)CC2C)cc1OC (stereo not given)
76 | 108 to 110 | CC(C)n1nc(-c2sc(NC(=O)c3ccc(CNCCCN(C)C)cc3)nc2-c2ccccc2)ccc1=O
77 | 177 to 180 | Cc1[nH]cnc1CSCCNC1=C([N+](=O)[O-])CN(Cc2ccccc2)CN1
78 | 115 to 119 | Cc1ccccc1C(=O)Nc1ccc(C(=O)N2Cc3ccccc3C(=O)c3ccccc32)cc1
79 | 227 to 228 | CC1(C)CCC(C)(C)c2cc(C=C=Cc3ccc(C(=O)O)cc3)ccc21
80 | 94 to 95 | O=C1CN2Cc3cc(OCCCC(=O)N(CCCCCCOC(=O)c4ccccc4)C4CCCCC4)ccc3N=C2N1
81 | 112 to 113 | COc1cccc(CCC(=O)O)c1OCCCc1cn(-c2ccc(C(F)(F)F)cn2)nc1C(C)C
82 | 158 to 161 | Cc1ccc2c(Cl)cc(S(=O)(=O)NCc3ccc(Cl)cc3)c(O)c2n1
83 | 122 to 123 | CCNc1nc(-c2cccc(C3=Nc4cc(N(C)C)c(Cl)cc4NC(=O)C3)c2)cs1
84 | 115 to 116 | CCCCOc1nc(N)c2[nH]c(=O)n(CCCCN(CCCN3CCCC3=O)Cc3cccc(CC(=O)OC)c3)c2n1
85 | 116 to 118 | CC(Nc1nc(-c2ccccc2)cs1)c1ccc(COc2ccc(CC(=O)O)cc2)cc1 (stereo not given)
86 | 164 to 166 | Cc1ccc(NCCCNc2ncc(Cc3ccc(C)nc3)c(=O)[nH]2)nc1
87 | 158 to 160 | C[C@@H](n1cnc2c(Cl)cc(Cl)cc2c1=O)[C@](O)(Cn1cncn1)c1ccc(F)cc1F
88 | 137 to 141 | CCCCCCCCCCCCOCCCNc1cc(OCC(=O)Nc2ccc(NNC=O)cc2)c2ccccc2c1O
89 | 78 to 80 | Cc1c(CCOCCO[N+](=O)[O-])cc(-c2ccc(S(C)(=O)=O)cc2)n1-c1ccccc1
90 | 56 to 58 | CCOC(=O)C(=CNC1CC1)C(=O)c1cc(F)c(F)c(OC)c1F
91 | 150 to 165 | Nc1cccc(-c2ccc(C3CCN(Cc4ccc5c(c4)OCO5)CC3)cc2)n1
92 | 160 to 163 | O=C(Oc1cc2ccccc2cn1)c1cc2ccccc2oc1=O
93 | 149 to 150 | C#CCc1c(C)nc2c(NCc3c(C)cccc3NC(=O)OC)cccn12
94 | 171 to 173 | C=CCn1c2ccc(OC)cc2c2c3c(c(-c4ccccc4Cl)cc21)C(=O)N(Cc1ccc(OC)cc1OC)C3=O
95 | 42 to 43 | CCNC(=O)OCCOc1ccc(Oc2ccc(F)cc2)cc1Cl
